This is an account of results in patent US9320281B2, “Readied in situ glyphosate herbicide soluble powder composition and its preparation process” (ALLVET QUIMICA INDUSTRIAL LTDA., priority 2011, dated 2016).

Several values for one entry are separate records, joined by “and”; a condition that tells them apart may be missing. Equal entries are not always repeated.

The conditions of series [1]: cited from earlier work.
The subject of the next series is Fish. As to the kind of experiment: Fish toxicology LC50, OECD 203, 96 h. The class given is in vivo. To be noted: for Fish toxicology LC50: OECD 203, 96 h; for times less toxic for fish compared to a fatty amine ethoxylate: in vivo. From the text:
(§1) The low toxicity of coconut fatty acid copolymers with glycerol is illustrated by the following table

Another series concerns daphnia. As to the kind of experiment: Acute daphnia immobilization EC50, OECD 202. To be noted: for times less toxic for daphnia compared to a fatty amine ethoxylate: in vivo. The class given is in vivo.
Excerpt: as §1

Another series concerns rats. As to the kind of experiment: Acute oral toxicology LD50 in rats. The class given is in vivo.
The subject of another series is rabbits. As to the kind of experiment: Eye irritation rabbits. Particulars: rabbit, in vivo.
The nature of series [2]: 1,4-Dioxane content (carcinogen). From the text: The inevitable presence of 1,4-dioxane in all ethoxylated products is the reason why all ethoxylates including coco amide ethoxylates were excluded from consideration in the product of the present invention.
A further series concerns variety of weeds. As to the kind of experiment: Extensive field tests in Brazil and South Africa versus standard 360 g/liter liquid formulation. Particulars: surfactant in the glyphosate formulation. The class given is in vivo. As for the experimental part:
The product was extensively tested on the field. During eighteen months the soluble powder formulation was applied in different dosages on a variety of weeds in the state of Paraná, Brazil and in the province of […] in the Republic of South Africa and the results were compared with those obtained applying the standard product 360 g/liter liquid formulation side by side on the same fields.
More than one hundred field tests of the Soluble Powder were carried out. Each test consisted in applying different dosages of glyphosate acid on the field using the Soluble Powder object of the present invention and similar dosages of the standard 360 g/liter liquid formulation and comparing the results obtained side by side on the same field. Phytotoxicity of the weeds was measured by sampling and visual counting. All results were recorded and photographs taken before and after the tests.

For `O=C(O)CNCP(=O)(O)O` [Glyphosate, N-(phosphonomethyl)-glycine], the solubility in water result in series [1] is reported as “insoluble”.

On to “Fatty amine ethoxylate [reference compound]”, for which the “Fish toxicology LC50” value with Fish was 0.42 mg/l. Also, in the series on daphnia (OECD 202), the “Acute daphnia immobilization EC50” value is 0.46 µg/mL. In “Biodegradability”, this compound showed a Biodegradability of under 60%. The “Acute oral toxicology LD50” value in the series with rats is given as 200-2000 mg/kg. The Eye irritation rabbits entry with rabbits is reported as “Serious eye”. The “1,4-Dioxane content (carcinogen)” value in series [2] is on record as “Up to 25,000 ppm”.

In the series “Biodegradability”, “coconut oil polymer with glyceryl and phthalic anhydride” gave a Biodegradability of over 42%.

For the compound coco amide propyl betaine, in the series with Fish, the “times less toxic for fish compared to a fatty amine ethoxylate” value was found to be 15 times. Further, in the series on daphnia, the “times less toxic for daphnia compared to a fatty amine ethoxylate” value came out at 100 times. In addition, the “efficiency as surfactant compared with coco amide propyl amine oxide” value with variety of weeds is reported as “just as efficient”.

Regarding Coco amide propyl amine oxide, in the series with Fish, the “Fish toxicology LC50” value was 6 mg/l and >6 mg/l; the “times less toxic for fish compared to a fatty amine ethoxylate” value was 15 times. Further, the “times less toxic for daphnia compared to a fatty amine ethoxylate” value in the series on daphnia worked out at 100 times. The Biodegradability in the series “Biodegradability” is on record as over 90%. The Eye irritation rabbits result with rabbits was “Irritant”.
